# Data as given in the supplement of paper PMC10307832.
# Assays:
# Test in all cases: relative viability (nuclei count vs DMSO), 5 days (fraction); higher = more cells survive
# [1] = compound: CC1=CC(=CC=C1)NC2=NC(=CS2)C3=CC=NC=C3 + CC(=O)c1c(C)c2cnc(Nc3ccc(N4CCNCC4)cn3)nc2n(C2CCCC2)c1=O [Palbociclib] (partner 0.5 µM)
# Summary of the method: (§1)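 Values are medians from duplicate plates. Each reflects relative viability, defined as the nuclei count of treated wells over that of vehicle wells. Lung cancer cell lines in 1536-well plates were pin-tool dosed one day after seeding with one drug alone or with a fixed anchor-drug dose plus five library-drug doses (not always all listed) in √10 steps, then fixed, stained and imaged at 4× after 5 days.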
# [2] = compound: Cc1ccc(NC(=O)c2ccc(CN3CCN(C)CC3)cc2)cc1Nc1nc(-c2cccnc2)cs1 [Masitinib] + CC1(C)CCC(c2ccc(Cl)cc2)=C(CN2CCN(c3ccc(C(=O)NS(=O)(=O)c4ccc(N[C@H](CCN5CCOCC5)CSc5ccccc5)c(S(=O)(=O)C(F)(F)F)c4)cc3)CC2)C1 [Navitoclax] (partner 0.5 µM)
# Summary of the method: as §1
# [3] = compound: Cc1ccc(NC(=O)c2ccc(CN3CCN(C)CC3)cc2)cc1Nc1nc(-c2cccnc2)cs1 [Masitinib] + CS(=O)(=O)N1CCN(Cc2cc3nc(-c4cccc5[nH]ncc45)nc(N4CCOCC4)c3s2)CC1 [Pictilisib] (partner 1 µM)
# Summary of the method: as §1
# [4] = compound: Cc1ccc(NC(=O)c2ccc(CN3CCN(C)CC3)cc2)cc1Nc1nc(-c2cccnc2)cs1 [Masitinib] + Cc1nc(Nc2ncc(C(=O)Nc3c(C)cccc3Cl)s2)cc(N2CCN(CCO)CC2)n1 [Dasatinib] (partner 0.075 µM)
# Summary of the method: as §1
cell line,measurement,setting,value
UMC-11,relative viability,[1]; first compound 0.08 µM,0.339
same,relative viability,[1]; first compound 0.253 µM,0.311
same,relative viability,[1]; first compound 0.8 µM,0.305
same,relative viability,[1]; first compound 2.53 µM,0.334
same,relative viability,[1]; first compound 8 µM,0.313
same,relative viability,[2]; first compound 0.01 µM,0.286
same,relative viability,[2]; first compound 0.03162 µM,0.321
same,relative viability,[2]; first compound 0.1 µM,0.353
same,relative viability,[2]; first compound 0.3162 µM,0.338
same,relative viability,[2]; first compound 1 µM,0.353
same,relative viability,[3]; first compound 0.01 µM,0.744
same,relative viability,[3]; first compound 0.03162 µM,0.862
same,relative viability,[3]; first compound 0.1 µM,0.948
same,relative viability,[3]; first compound 0.3162 µM,0.972
same,relative viability,[3]; first compound 1 µM,0.856
same,relative viability,[4]; first compound 0.03162 µM,0.35
same,relative viability,[4]; first compound 0.1 µM,0.535
same,relative viability,[4]; first compound 0.3162 µM,0.556
same,relative viability,[4]; first compound 1 µM,0.509
